In US9201014B2, “Development of photostable near-IR cyanine dyes for in vivo imaging” (National University of Singapore, priority 2010, dated 2015):

Tests used:
[1] = Absorbance and fluorescence maximum wavelengths and quantum yields of the CyNA library; type: physicochemical; settings: for λabs, absorbance maximum wavelength / λem, fluorescence maximum wavelength: CyNA library; for φ, quantum yield: in DMSO, Cardiogreen as standard
Procedure: Since the k values of the different CyNA compounds indicated some dependency on the chemical structure of the amine, the CyNA scaffold was derivatized with a broad range of primary amines (FIGS. 4A-4C). The fluorescence properties of the 80-member CyNA library were measured. The absorption maximum wavelengths ranged from 802 nm to 806 nm, emission maximum wavelengths ranged from 817 nm to 823 nm, and the average quantum yield was approximately 0.10 (Table 2).
All the chemicals (building block amines plus others) and solvents were purchased from Sigma Aldrich, Alfa Aesar, Fluka, MERCK or Acros, and used without further purification. ^1H-NMR and ^13C-NMR spectra were recorded on Bruker Avance 300 NMR and 500 NMR spectrometers, and chemical shifts are expressed in parts per million (ppm). High-resolution mass spectrometry (HRMS) data was recorded on a Micromass VG 7035. Photobleaching experiments were performed using a UVP Blak-Ray® B-100AP high intensity UV lamp (100 W, 365 nm) Spectroscopic and quantum yield data were measured on a SpectraMax M2 spectrophotometer (Molecular Devices), and the data analysis was performed using GraphPrism 5.0. Photobleaching measurements were performed using an Eclipse Ti-U Nikon microscope (filter cube: 750/800) attached to Ti:sappire oscillator that operated in continuous wave mode, and the data was processed using the software NIS-Elements 3.10. In vivo images were taken in an IVIS Spectrum imaging system (Caliper Life Sciences).

[2] = Primary screening of photostability of the CyNA library (time-course fluorescence, 8 h); type: physicochemical; parameters: F/Fo, fluorescent intensity at 8 hours vs 0 hours: unit: %; settings: 10 μM in HEPES 100 mM pH 7.4, 2% DMSO
Procedure: As a primary evaluation of photo stability, the decrease in fluorescence intensity of the 80 CyNA compounds was measured (see Table 2). The average decrease in fluorescence intensity after 8 hours of irradiation by a xenon lamp was approximately 18%. A subset of the most photostable compounds (i.e., F/Fo reported in Table 2 was greater than or equal to 95) was examined under stronger irradiation in various buffers.
10-μM CyNA solutions in 100 mM HEPES buffer (pH 7.4) containing 2% DMSO were placed in a 96-well black plate, and fluorescence intensity measurements were recorded every 10 minutes for a total period of 8 hours (excitation-emission: 790-820 nm). A subset of fourteen compounds selected according to their F8h/Fo quotients, quantum yields and maximum relative fluorescence units (RFU) values was further evaluated in a secondary screening

Row | Structure (SMILES) | λabs, absorbance maximum wavelength [1] | λem, fluorescence maximum wavelength [1] | φ, quantum yield [1] | F/Fo, fluorescent intensity at 8 hours vs 0 hours [2] | max RFU, maximum relative fluorescence units [2]
1 | CCCN1/C(=C/C=C2\CCCC(/C=C/C3=[N+](CCC)c4ccccc4C3(C)C)=C2N(CCc2ccccc2Cl)C(C)=O)C(C)(C)c2ccccc21 [CyNA-480] | 803 nm | 817 nm | 0.06 | 51 | 154.8
2 | CCCN1/C(=C/C=C2\CCCC(/C=C/C3=[N+](CCC)c4ccccc4C3(C)C)=C2N(CCC(C)(C)C)C(C)=O)C(C)(C)c2ccccc21 [CyNA-92] | 805 nm | 821 nm | 0.09 | 64 | 420.2
3 | CCCN1/C(=C/C=C2\CCCC(/C=C/C3=[N+](CCC)c4ccccc4C3(C)C)=C2N(Cc2cccc(OC)c2OC)C(C)=O)C(C)(C)c2ccccc21 [CyNA-124] | 803 nm | 820 nm | 0.15 | 100 | 1334.2
4 | CCCN1/C(=C/C=C2\CCCC(/C=C/C3=[N+](CCC)c4ccccc4C3(C)C)=C2N(CCc2cccc(OC)c2)C(C)=O)C(C)(C)c2ccccc21 [CyNA-102] | 805 nm | 822 nm | 0.14 | 63 | 998.9
5 | CCCN1/C(=C/C=C2\CCCC(/C=C/C3=[N+](CCC)c4ccccc4C3(C)C)=C2N(C(C)=O)C(C)CCc2ccccc2)C(C)(C)c2ccccc21 (centres unmarked) [CyNA-275] | 804 nm | 817 nm | 0.14 | 62 | 679.8
6 | CCCN1/C(=C/C=C2\CCCC(/C=C/C3=[N+](CCC)c4ccccc4C3(C)C)=C2N(Cc2ccccc2OCC)C(C)=O)C(C)(C)c2ccccc21 [CyNA-103] | 804 nm | 821 nm | 0.14 | 92 | 1106.6
7 | CCCCC(CC)COCCCN(C(C)=O)C1=C(/C=C/C2=[N+](CCC)c3ccccc3C2(C)C)CCC/C1=C\C=C1\N(CCC)c2ccccc2C1(C)C (centres unmarked) [CyNA-193] | 806 nm | 822 nm | 0.12 | – | 58.7
8 | CCCN1/C(=C/C=C2\CCCC(/C=C/C3=[N+](CCC)c4ccccc4C3(C)C)=C2N(Cc2ccc(C)cc2)C(C)=O)C(C)(C)c2ccccc21 [CyNA-396] | 804 nm | 820 nm | 0.09 | 96 | 736.1
9 | CCCN1/C(=C/C=C2\CCCC(/C=C/C3=[N+](CCC)c4ccccc4C3(C)C)=C2N(CCc2ccc(OC)cc2)C(C)=O)C(C)(C)c2ccccc21 [CyNA-395] | 804 nm | 820 nm | 0.07 | 95 | 234.3
10 | CCCN1/C(=C/C=C2\CCCC(/C=C/C3=[N+](CCC)c4ccccc4C3(C)C)=C2N(Cc2c(F)cccc2F)C(C)=O)C(C)(C)c2ccccc21 [CyNA-80] | 804 nm | 817 nm | 0.08 | 93 | 734.9
11 | CCCN1/C(=C/C=C2\CCCC(/C=C/C3=[N+](CCC)c4ccccc4C3(C)C)=C2N(Cc2ccc3c(c2)OCO3)C(C)=O)C(C)(C)c2ccccc21 [CyNA-49] | 804 nm | 818 nm | 0.10 | 95 | 851.3
12 | CCCN1/C(=C/C=C2\CCCC(/C=C/C3=[N+](CCC)c4ccccc4C3(C)C)=C2N(CCCc2ccccc2)C(C)=O)C(C)(C)c2ccccc21 [CyNA-335] | 804 nm | 821 nm | 0.06 | 50 | 167.9
13 | CCCN1/C(=C/C=C2\CCCC(/C=C/C3=[N+](CCC)c4ccccc4C3(C)C)=C2N(Cc2ccccc2F)C(C)=O)C(C)(C)c2ccccc21 [CyNA-375] | 804 nm | 821 nm | 0.07 | 98 | 533.7
14 | CCCN1/C(=C/C=C2\CCCC(/C=C/C3=[N+](CCC)c4ccccc4C3(C)C)=C2N(Cc2ccccc2OC)C(C)=O)C(C)(C)c2ccccc21 [CyNA-388] | 803 nm | 819 nm | 0.14 | 97 | 1398.5
15 | CCCN1/C(=C/C=C2\CCCC(/C=C/C3=[N+](CCC)c4ccccc4C3(C)C)=C2N(Cc2ccc(Cl)c(Cl)c2)C(C)=O)C(C)(C)c2ccccc21 [CyNA-565] | 805 nm | 821 nm | 0.09 | 96 | 335.5
16 | CCCN1/C(=C/C=C2\CCCC(/C=C/C3=[N+](CCC)c4ccccc4C3(C)C)=C2N(Cc2ccc(Cl)cc2)C(C)=O)C(C)(C)c2ccccc21 [CyNA-221] | 803 nm | 820 nm | 0.07 | 86 | 382.6
17 | CCCN1/C(=C/C=C2\CCCC(/C=C/C3=[N+](CCC)c4ccccc4C3(C)C)=C2N(Cc2ccccc2C)C(C)=O)C(C)(C)c2ccccc21 [CyNA-101] | 806 nm | 822 nm | 0.08 | 86 | 693.9
18 | CCCN1/C(=C/C=C2\CCCC(/C=C/C3=[N+](CCC)c4ccccc4C3(C)C)=C2N(Cc2cccc(OC)c2)C(C)=O)C(C)(C)c2ccccc21 [CyNA-387] | 804 nm | 820 nm | 0.07 | 75 | 739.9
19 | CCCN1/C(=C/C=C2\CCCC(/C=C/C3=[N+](CCC)c4ccccc4C3(C)C)=C2N(Cc2cccc(Br)c2)C(C)=O)C(C)(C)c2ccccc21 [CyNA-341] | 805 nm | 822 nm | 0.10 | 100 | 259.2
20 | CCCN1/C(=C/C=C2\CCCC(/C=C/C3=[N+](CCC)c4ccccc4C3(C)C)=C2N(CCC(c2ccccc2)c2ccccc2)C(C)=O)C(C)(C)c2ccccc21 [CyNA-100] | 804 nm | 819 nm | 0.08 | 63 | 333.8
21 | CCCN1/C(=C/C=C2\CCCC(/C=C/C3=[N+](CCC)c4ccccc4C3(C)C)=C2N(CCCOC(C)C)C(C)=O)C(C)(C)c2ccccc21 [CyNA-274] | 805 nm | 820 nm | 0.12 | 99 | 1209.5
22 | CCCN1/C(=C/C=C2\CCCC(/C=C/C3=[N+](CCC)c4ccccc4C3(C)C)=C2N(CCCCc2ccccc2)C(C)=O)C(C)(C)c2ccccc21 [CyNA-131] | 804 nm | 819 nm | 0.13 | – | 259.8
23 | CCCN1/C(=C/C=C2\CCCC(/C=C/C3=[N+](CCC)c4ccccc4C3(C)C)=C2N(CCc2ccc(C)cc2)C(C)=O)C(C)(C)c2ccccc21.[I-] [CyNA-478] | 805 nm | 821 nm | 0.09 | 64 | 121.6
